Laboratory results from US20240299416A1, “TREATMENT OF NF-kB-MEDIATED DISEASE” (ReveraGen BioPharma, Inc., priority 2021, published 2024).
Like-named read-outs stand apart in the source and are kept apart here.

Experiments:
boys with DMD [1] = experiment: VBP15-004 efficacy at Week 48; assay type: in vivo, human; details: for 6MWT, change from baseline / NSAA, change from baseline / TTRW velocity, change from baseline / TTSTAND velocity, change from baseline: 6 mg/kg/day
Description: Subjects already on vamorolone continued on the allocated dose level. Efficacy at Week 48 was assessed by Time to Stand ([…]) velocity, 6-Minute Walk Test (6MWT), Time to Run/Walk 10 meters (TTRW) velocity, and North Star Ambulatory Assessment (NSAA). […] In contrast, the persistence of effects with vamorolone 2 mg/kg/day was less pronounced for some parameters. The safety profile was consistent for subjects who continued on the same dose of vamorolone throughout the study, with no increase in frequency or severity of adverse events being observed over time. […] In addition, vamorolone treatment at both doses reversed the growth impairment seen during prednisone treatment and was associated with fewer adverse events, including those associated with corticosteroid use.

[2] = biological target: T1, mineralocorticoid receptor (Homo sapiens, UniProt P08235); details: cited from earlier work
T1 sequence (P08235 1-984): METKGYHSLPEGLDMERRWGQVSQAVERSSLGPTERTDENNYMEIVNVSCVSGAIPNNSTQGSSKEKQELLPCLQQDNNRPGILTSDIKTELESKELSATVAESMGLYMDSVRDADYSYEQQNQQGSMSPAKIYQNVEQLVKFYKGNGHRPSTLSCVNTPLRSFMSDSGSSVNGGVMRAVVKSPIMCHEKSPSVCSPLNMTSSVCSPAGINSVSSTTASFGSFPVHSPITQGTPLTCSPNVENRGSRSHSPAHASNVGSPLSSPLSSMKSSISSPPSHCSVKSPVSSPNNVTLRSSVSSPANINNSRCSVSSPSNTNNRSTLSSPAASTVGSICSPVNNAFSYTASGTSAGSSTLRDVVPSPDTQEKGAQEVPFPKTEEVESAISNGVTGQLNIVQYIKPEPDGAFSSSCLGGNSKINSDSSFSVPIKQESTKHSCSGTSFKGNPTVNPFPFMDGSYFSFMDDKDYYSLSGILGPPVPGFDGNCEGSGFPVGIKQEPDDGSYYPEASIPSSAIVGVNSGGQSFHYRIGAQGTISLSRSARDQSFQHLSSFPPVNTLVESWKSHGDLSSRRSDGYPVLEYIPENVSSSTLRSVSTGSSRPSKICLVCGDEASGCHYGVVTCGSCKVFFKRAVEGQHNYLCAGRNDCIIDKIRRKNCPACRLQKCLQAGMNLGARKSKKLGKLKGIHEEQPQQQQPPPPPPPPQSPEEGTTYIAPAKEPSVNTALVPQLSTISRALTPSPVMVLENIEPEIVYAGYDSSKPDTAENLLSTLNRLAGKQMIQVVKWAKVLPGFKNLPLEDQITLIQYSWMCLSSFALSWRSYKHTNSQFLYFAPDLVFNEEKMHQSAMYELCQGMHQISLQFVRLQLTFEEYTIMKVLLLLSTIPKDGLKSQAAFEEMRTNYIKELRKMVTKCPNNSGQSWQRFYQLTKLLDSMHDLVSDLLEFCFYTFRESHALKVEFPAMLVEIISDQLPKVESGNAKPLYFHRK

boys with DMD [3] = experiment: VBP15-LTE month 24 PODCI and wrist x-ray bone age; assay type: in vivo, human
Source text: In addition, 39/41 LTE participants had wrist x-ray at Month 24; the mean bone age to chronologic age difference was −1.1 (p<0.001, CI −1.5, −0.7), indicating possible skeletal maturation delay (Table 7).
PODCI is the Pediatrics Outcomes Data Collection Instrument (musculoskeletal disorders). The PODCI is a disease-specific questionnaire developed by the American Academy of Orthopedic Surgeons to measure general health and problems related to bone and muscle conditions in children. A significant increase in mean PODCI upper extremity and physical function standardized score was observed from LTE baseline to Month 24 (7.95±12.54, CI 1.003, 14.897, p=0.0278, n=15) for the combined 2.0 and 6.0 mg/kg/day initial dose group. At the same time, a non-significant decrease in mean PODCI transfer and basic mobility standardized score was observed (−4.38±22.68, CI −16.471, 7.703, p=0.451, n=16) (Table 7).

[4] = Growth (height percentile) and BMI vs external comparators; assay type: in vivo, human
Description: As with the CINRG DNHS comparators, group-matching criteria were prespecified in the iSAP, and 2 independent statisticians carried out the participant matching. […] There was no corresponding 12-month assessment in vamorolone-treated participants. (Assessments of vamorolone-treated trial participants were 0, 3, 6, and 18 months).
Standing height and weight were assessed at each study visit. Height z-score, body mass index (BMI; kg/m^2), and BMI z-score were calculated centrally. AE reporting was done per protocol in the vamorolone trials.
The current study is the first to evaluate the longer-term tolerability, efficacy, and safety of vamorolone in DMD. […] Given the variable timing of dose escalations, it was prespecified that initial analyses of drug-related efficacy and safety would be limited to those participants who had 18 months of treatment with 2.0 mg/kg/day vamorolone or more (dose group C+dose group D; n=23). Outcomes for these participants were compared to a group-matched cohort from the CINRG DNHS over 18 months (corticosteroid-naïve, n=19; corticosteroid-treated, n=68). Participants were matched for age and treatment period (±1 month), matching criteria were prespecified in the statistical analysis plan. Two independent statisticians carried out the matching.
Participants in the corticosteroid-treated CINRG DNHS group were treated for at least 18 months, but the total duration, dose, and regimens varied.

[5] = Treatment Period 2 after switch from prednisone to vamorolone 6 mg/kg/day
[6] = vamorolone 18 months vs prednisone trial 12 months
[7] = vamorolone vs corticosteroid-naïve DNHS, 18 months
[8] = vamorolone vs corticosteroid-treated DNHS, 18 months

C[C@@H]1C[C@H]2[C@@H]3CCC4=CC(=O)C=C[C@]4(C)C3=CC[C@]2(C)[C@@]1(O)C(=O)CO [Vamorolone, 17α,21-dihydroxy-16α-methylpregna-1,4,9(11)-triene-3,20-dione]
6MWT, change from baseline (boys with DMD [1]; Week 24): 37 meters
NSAA, change from baseline (boys with DMD [1]; Week 24): 3.4 points
TTRW velocity, change from baseline (boys with DMD [1]; Week 24): 0.29 m/s
TTSTAND velocity, change from baseline (boys with DMD [1]; Week 24): 0.052 rises/s
6MWT, change from baseline (boys with DMD [1]; Week 48): 48 meters
NSAA, change from baseline (boys with DMD [1]; Week 48): 3.5 points
TTRW velocity, change from baseline (boys with DMD [1]; Week 48): 0.23 m/s
TTSTAND velocity, change from baseline (boys with DMD [1]; Week 48): 0.045 rises/s
6MWT distance (boys with DMD [1]; [5]): 408 meters
NSAA (boys with DMD [1]; [5]): 26.2 points
TTRW velocity (boys with DMD [1]; [5]): 2.20 m/s
TTSTAND velocity (boys with DMD [1]; [5]): 0.27 rises/s
activity at the mineralocorticoid receptor [2]: potent antagonist
Bone Age by wrist x-ray, mean (SD) (boys with DMD [3]): 6.8 (1.4), n = 39 yr
Bone Age difference to Chronologic Age, mean (SD) (boys with DMD [3]): −1.1 (1.2), yr
Bone Age difference to Chronologic Age, mean (SD) (boys with DMD [3]; listed as vamorolone): −1.1 yr
Mean BMI z-score, 18-month value (SD) ([4]; 18 months of treatment): 1.46 (0.62)
Mean BMI z-score, change from baseline (SD) ([4]; 18 months of treatment): 0.411 (0.615)
Mean height percentile for age, 18-month value (SD) ([4]; 18 months of treatment): 35.24 (29.82)
Mean BMI z-score, change from baseline (SD) ([4]; 18 months of treatment, listed as vamorolone): 0.41
LS Mean change in height percentiles for age ([4]; DMD children, 18 months treatment): +6.9
Mean BMI z-score, baseline value (SD) ([4]; baseline of 18-month period): 1.03 (0.56)
Mean height percentile for age, baseline value (SD) ([4]; baseline of 18-month period): 29.19 (24.66)
Mean BMI z-score, baseline value (SD) ([4]; baseline of 18-month period, listed as vamorolone): 1.03
BMI change from baseline to 18 months ([4]; original dose group B (0.75 mg/kg/day, escalated)): 0.5 kg/m^2
BMI change from baseline to 18 months ([4]; original dose group C (2.0 mg/kg/day)): 1.11 kg/m^2
BMI change from baseline to 18 months ([4]; original dose group D (6.0 mg/kg/day)): 2.55 kg/m^2
Mean BMI z-score, LS mean difference (SE) [4, 6]: 0.066 (0.193)
Mean height percentile for age, LS mean difference (SE) [4, 6]: 10.37 (3.86)
Mean height percentile for age, LS mean difference (SE) ([4]; vamorolone 18 months vs prednisone trial 12 months, listed as vamorolone): 10.37
Mean BMI z-score, LS mean difference (SE) [4, 7]: 0.899 (0.204)
Mean height percentile for age, LS mean difference (SE) [4, 7]: 6.72 (3.48)
Mean BMI z-score, LS mean difference (SE) [4, 8]: 0.282 (0.146)
Mean height percentile for age, LS mean difference (SE) [4, 8]: 15.86 (3.70)
Mean height percentile for age, LS mean difference (SE) ([4]; vamorolone vs corticosteroid-treated DNHS, 18 months, listed as vamorolone): 15.86
